Several values for one entry are separate records, joined by “and”; a condition that tells them apart may be missing. Equal entries are not always repeated.
How the values were obtained:
[1] = molecular target: T1, HiBiT-5-HT2A (Homo sapiens, UniProt P28223); assay: NanoBRET kinetic measurement of ligand binding to HiBiT-5-HT2A (Motulsky-Mahan)
T1 construct: expressed in transfected cells; host or cells: HEK293 (transient)

[2] = test system: wildtype mouse prefrontal cortex layer V pyramidal neurons; assay: Brain slice current clamp recording of membrane properties and action potential firing; format: cell-based
Procedure: Animals: Wildtype C57BL/6J mice were obtained from the Jackson Labs. Male and female pups, age postnatal day (P) 17-23, were used for the electrophysiological experiments. Animals were housed in the Unit for Laboratory Animal Medicine at the University of Michigan. All procedures were performed in accordance with the NIH and approved by the University of Michigan IACUC.
Brain Slice Preparation: Acute brain slices were prepared as described previously (Hull et al., Ann Clin Transl Neur., 2020; 7 (11): 2137-2149). Briefly, mice were anesthetized with isoflurane anesthesia and decapitated. Brains were carefully removed from the skull and placed in ice-cold carbogen-aerated slice solution containing (in mM): 110 sucrose, 62.5 NaCl, 2.5 KCl, 6 MgCl2, 1.25 KH2PO4, 26 NaHCO3, 0.5 CaCl2), 20 D-glucose, pH 7.35-7.40. Brains were blocked and slices were cut using a vibrating microtome (Electron Microscopy Sciences) in 250 μm thick coronal sections from prefrontal cortex. Slices were incubated in an aerated holding chamber containing slice solution for 30 minutes at room temperature and then incubated in 1:1 slice: artificial cerebrospinal solution (ACSF) for 30 minutes at 35° C. ACSF contained in mM (125 NaCl; 2.5 KCl; 1 MgCl2; 1.25 KH2PO4; 26 NaHCO3; 2 CaCl2); and 20 D-glucose (pH 7.35-7.40). Slices were then aerated in a holding chamber containing 100% ACSF for at least 30 min at room temperature before recording.
Action Potential Recording and Analysis: Individual brain slices were placed in an RC-26 recording chamber (Warner Instruments) and superfused with aerated ACSF at a flowrate of 2-3 mL/min equipped with an inline heater (Warner Instruments) to maintain the recording temperature at 33-35° C. Layer 5 pyramidal neurons were identified based on their large soma size, shape, and location using an AIR upright confocal microscope (Nikon) equipped with IR-DIC optics and a 40× water immersion objective. Only vertically oriented pyramidal cells were selected for recording. […] The junction potential was calculated to be 14.3 mV using the P-clamp junction potential calculator and all values presented in the study are uncorrected. Following break in at −94.3 mV in voltage clamp mode, the resting membrane potential was defined as the membrane potential in current clamp <10 s after initial break in for baseline or immediately after XOB perfusion. Repetitive action potential firing was elicited in whole-cell current clamp from the resting membrane potential in 1 s long current injections in 10 pA steps from −20 pA to +400 pA. There was a 1 s long 0 pA current injection between each sweep. Data were acquired at 20 kHz and were filtered at 10 kHz. Cells with an access resistance measured in voltage clamp >20 MΩ or RMP more depolarized than −64.3 mV were not used. Access resistance and pipette capacitance were compensated using bridge balance. Whole cell capacitance was measured using P-clamp whole cell capacitance compensation in voltage clamp with 10 mV depolarizing steps from −94.3 mV. Automated action potential (AP) quantification and analysis was performed using custom MATLAB (MathWorks) software. APs were defined as the voltage crossing 0 mV after a dV/dt>10 mV/ms, defined here as the AP threshold. Input resistance was calculated using Ohm's law with a −10 pA current injection from the resting membrane potential after 250 ms.

T1 sequence (P28223 whole entry): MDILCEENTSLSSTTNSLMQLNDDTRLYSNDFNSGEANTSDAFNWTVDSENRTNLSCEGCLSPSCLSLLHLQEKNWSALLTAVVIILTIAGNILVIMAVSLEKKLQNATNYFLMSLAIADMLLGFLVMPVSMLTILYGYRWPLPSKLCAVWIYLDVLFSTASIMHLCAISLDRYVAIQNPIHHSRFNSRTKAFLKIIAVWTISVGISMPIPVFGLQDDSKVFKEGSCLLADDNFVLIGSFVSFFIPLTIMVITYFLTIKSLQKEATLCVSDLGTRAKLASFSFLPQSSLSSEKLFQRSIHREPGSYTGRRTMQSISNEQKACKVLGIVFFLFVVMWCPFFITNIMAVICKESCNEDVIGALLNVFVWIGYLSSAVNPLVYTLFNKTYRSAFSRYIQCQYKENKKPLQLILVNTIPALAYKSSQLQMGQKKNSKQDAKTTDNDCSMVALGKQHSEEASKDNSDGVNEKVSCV

## COc1cc(CCNCCCCCCOCCCCc2ccccc2)c(OC)cc1Br [XOB, N-(4-bromo-2,5-dimethoxyphenethyl)-6-(4-phenylbutoxy)hexan-1-amine]
[1]
  association rate at 5-HT2A relative to serotonin (in words): two orders of magnitude slower
  association rate at 5-HT2A, fold slower than serotonin: about 24 fold
[2]; 10 μM
  First AP Max dv/dt: 402.68±46.20 mV/ms and 402.68 mV/ms
  First AP Min dv/dt: −91.32±8.95 mV/ms
  First AP Peak Amplitude: 41.21±2.92 mV and 41.21 ± 2.29 mV
  First AP Threshold: −38.43±1.23 mV
  Input Resistance: 100.08±30.18 MΩ
  Max Firing Rate @ 300 pA: 12.25 ± 1.53 Hz
  Max Firing Rate @ 400 pA: 14±1.82 Hz
  Resting Vm: −63.25±1.15 mV
  Spike Width: 0.76 ± 0.06 ms
[2]; 10 μM vs baseline
  depolarization of the resting membrane potential: +8.45±1.15 mV
  reduction in maximum firing frequency at 400 pA current injections: ~12 Hz

Source: patent US20250388529A1, “N-Substituted Phenylalkylamines and Their Use as Therapeutic Agents” (priority 2023, published 2025)
